In publication PMC11760891, “Discovery and Characterization of Two Selective Inhibitors for a Mu-Class Glutathione S-Transferase of 25 kDa from Taenia solium Using Computational and Bioinformatics Tools” (Biomolecules, 2024) one finds inhibition and IC50 data, which are given here for two molecules.

The inhibition is the relative decrease from the control value, in per cent. One may read the IC50 as the point on the concentration scale where inhibition reaches its midpoint. Low values mean inhibition by little substance, high ones a need for much substance.

The target of one test is T1, HGSTM1 (Homo sapiens, UniProt P09488).
T1 construct: gene GSTM1; commercial human GST M1 (Oxford Biomedical Research GS65)
T1 sequence (P09488 2-218): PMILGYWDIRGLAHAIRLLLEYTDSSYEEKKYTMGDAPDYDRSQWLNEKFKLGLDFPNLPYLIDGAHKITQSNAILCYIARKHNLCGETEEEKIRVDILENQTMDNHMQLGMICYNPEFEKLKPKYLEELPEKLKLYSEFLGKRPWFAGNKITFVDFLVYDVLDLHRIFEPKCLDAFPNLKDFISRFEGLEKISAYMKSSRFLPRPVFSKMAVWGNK
Description: GSH-CDNB conjugation, absorbance […] nm, single concentration. The test is classed as biochemical.

The next test concerns the target T2, Ts25GST (Taenia solium, UniProt Q8MWS0).
T2 construct: about 25 kDa on SDS-PAGE; dimer; no tag mentioned
T2 sequence (Q8MWS0 1-219): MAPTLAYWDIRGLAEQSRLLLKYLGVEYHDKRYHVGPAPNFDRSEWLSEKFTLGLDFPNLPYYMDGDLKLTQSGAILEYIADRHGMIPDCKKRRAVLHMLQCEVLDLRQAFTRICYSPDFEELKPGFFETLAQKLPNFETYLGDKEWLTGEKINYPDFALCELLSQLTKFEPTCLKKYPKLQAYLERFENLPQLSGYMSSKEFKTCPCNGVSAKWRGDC
Put plainly: GSH-CDNB conjugation, absorbance […] nm, dose-response. The test is classed as biochemical.

For the molecule `O=C(CSc1ncc(-c2ccccc2)nn1)NC1=NN=C(c2ccccc2)CS1` [i11], the inhibition at 40 µM on HGSTM1 came out at 33.4 ± 2.2%.

With `O=C(CCN1C(=O)c2ccccc2C1=O)Nc1ccc(Nc2ccccc2)cc1` [i15], the IC50 on Ts25GST was 25.7 ± 1.1 µM. On HGSTM1, this molecule returned an inhibition at 40 µM of 30.8 ± 1.9%.
